The conditions of data set [1]: cited from earlier work.
Data set [2] in a line: Basic (simple static) model prediction of clinical DUT-KET interaction. Set-up: species or system human. The following applies: clinical prediction from HLM data, R = 1 + Imax,u / Ki. The method, then: Supplementary Materials: In Vitro and In Vivo
Assessment of Metabolic Drug Interaction Potential of Dutasteride with Ketoconazole
Table S1. Previous literatures on bioanalytical methods for DUT using HPLC system coupled with ultraviolet-visible (UV/Vis) and tandem mass (MS/MS) detector.
Detector Matrix Sample Sample Preparation Mobile Phase Conc. Range Validation Ref.
LC-MS/MS Human plasma 300 µL LLE Isocratic 0.1-25 ng/mL Full
LC-MS/MS Human plasma 500 µL LLE Gradient 0.1-25 ng/mL Full
LC-MS/MS Human plasma 500 µL SPE Gradient 1-100 ng/mL Full
LC-MS/MS Human plasma 500 µL SPE Isocratic 0.1-10 ng/mL Full
LC-MS/MS Human plasma 900 µL LLE Isocratic 0.5-50 ng/mL Full
LC-MS/MS Human plasma 1000 µL LLE Gradient 0.05-4 ng/mL Full
LC-MS/MS Human Serum 2000 µL LLE NR 0.025-2.5 ng/mL Partial
LC-MS/MS Human Urine 5000 µL SPE Gradient NR Partial
LC-MS/MS Rat plasma 100 µL LLE Isocratic 1-500 ng/mL Partial
LC-MS/MS Rat plasma 100 µL LLE Isocratic 5-400 ng/mL Partial
HPLC-UV Rat blood 100 µL Deproteinization Gradient NR Partial […]
where the R is the predicted ratio of the AUC of DUT in the presence and absence of KET, the Imax,u is the maximum unbound plasma concentration of KET, and the Ki is the unbound inhibition constant of KET determined in vitro. Since IC50 only was determined in this study, it was converted to Ki using the following equation for competitive inhibition. […]

Data set [3] in a line: NADPH-dependent metabolism (disappearance) of DUT in rat liver microsomes. It counts as in vitro ADME. As to conditions: RLM. The method, then:
In vitro metabolism studies in RLM and HLM were conducted as previously reported with slight modifications. To investigate the NADPH-dependent metabolism (via phase I enzymes including CYPs) of DUT in RLM and HLM, the disappearance of DUT at various concentrations ranging from 1 to 100 μM in the presence of NADPH was determined in RLM and HLM. The substrate (DUT) concentration ([S]; μM) versus the initial metabolic rate (V; pmol/min/mg protein) data were interpreted based on the Michaelis–Menten kinetics, and relevant parameters were estimated by nonlinear regression analysis (GraphPad Prism ver. 5.01; GraphPad Software, San Diego, CA, USA) based on the following Michaelis–Menten equation: V = Vmax × [S]/Km + [S] where Vmax and Km are the maximal metabolic rate and Michaelis–Menten constant, respectively. The intrinsic metabolic clearance (CLint) was calculated by dividing Vmax by Km. The unbound Km (Km,u) was calculated as the Km multiplied by the unbound fraction in microsomes (fu,mic). The unbound CLint (CLint,u) was calculated as the CLint divided by the fu,mic.
To investigate the metabolic interaction potential between DUT and KET, the disappearance of DUT (5 μM) in RLM and HLM was determined under the absence and presence of KET at various concentrations ranging from 1 to 5000 nM. A microsomal reaction mixture was prepared as follows (total volume: 0.2 mL): 1 mM NADPH, 10 mM MgCl2, substrate (DUT), and inhibitor (KET), RLM or HLM (1 mg/mL), and 50 mM phosphate buffer. […] The unbound fractions of DUT in rat plasma, RLM, human plasma, and HLM were measured using a rapid equilibrium dialysis (RED) device (Thermo Fisher Scientific, Inc., Waltham, MA, USA) as described in a previous study. […] The fraction unbound was calculated as the ratio of the drug concentrations in the “buffer” chamber to those in the “sample” chamber. The blood-to-plasma concentration ratio (RB) of DUT was determined as described previously. […] The concentrations of DUT in the plasma sample were determined by the validated HPLC analysis.

Data on one compound can be found in publication PMC6956158, “In Vitro and In Vivo Assessment of Metabolic Drug Interaction Potential of Dutasteride with Ketoconazole” (Pharmaceutics, 2019).

For the compound `C[C@]12C=CC(=O)N[C@@H]1CC[C@@H]1[C@@H]2CC[C@]2(C)[C@@H](C(=O)Nc3cc(C(F)(F)F)ccc3C(F)(F)F)CC[C@@H]12` [DUT, Dutasteride], in data set [1] (healthy humans, 0.5 mg DUT once-daily for more than 6 months), the “steady-state serum DUT concentration, median” value is on record as 38 ng/mL. Moreover, the terminal half-life entry in data set [1] (humans, after reaching a steady state) is given as “approximately 5 weeks”. For the same compound, the “unchanged DUT excreted in the urine” value in data set [1] (humans) is reported as “trace amounts”. For the same compound, in data set [2], the “R, predicted ratio of the AUC of DUT in the presence and absence of KET” value is listed as 2.88. Further, the Vmax in data set [3] (DUT 1 to 100 μM, NADPH) was found to be 114 ± 10 pmol/min/mg protein. The same compound gave a microsomal CLint in data set [3] (Sprague-Dawley, rat, rat liver microsomes, Vmax divided by Km) of 3.45 ± 0.37 µL/min/mg. In data set [3] (rat, rat liver microsomes, DUT 1 to 100 μM, NADPH), the Km was 33.3 ± 3.6 µM.
